From patent publication US4189499A, “Lysine 4-allyloxy-3-chlorophenylacetate and method of its preparation” (priority 1979, dated 1980)
“And” between values parts separate entries of the source, which are not always exact repeats. Equal entries are not always repeated. “Also recorded” adds a separate entry of the source. Structures can show the parent of a compound that is named as a salt. Where two headings read alike, the source gives them in different places.

Key:
[1] = Solubility; assay type: physicochemical; conditions: in words, solvent as stated
[2] = pH of aqueous solution; assay type: physicochemical; conditions: aqueous solution as prepared
[3] = tested on: rabbit dorsal long muscle; assay: Local tolerability after intramuscular injection, muscle removed at 24 hours, irritation by arbitrary scores; assay type: in vivo; parameters: scale not given here
Procedure: Such a tolerability was estimated after injection of equivalent solutions of the various preparations, effected in the rabbit dorsal long muscle, removing muscle 24 hours after injection and estimating the degree of induced irritation through arbitrary scores.

[4] = Stability and hygroscopicity; assay type: physicochemical; conditions: for Hygroscopicity: isolated solid; for Stability of the solution: in words
[5] = Extent of availability after different routes, intravenous administration as reference; assay type: in vivo, rabbit; conditions: i.v. as reference
Procedure: (§1) The following pharmacological experimentation was carried out in order to estimate the comparative absorption and bioavailability through various administration routes in rabbits of Alclofenac acid and its lysine salt.

[6] = cited from earlier work
[7] = Pharmacokinetics from plasma levels after oral, rectal and intramuscular administration in rabbits; assay type: in vivo, rabbit; conditions: for Ka / t1/2α / CL/F / k el / Cmax / Vd/F / half-life / Tmax: ± E.S.M.; for CL/F / k el / Cmax / Vd/F / half-life / Tmax: rabbit, plasma; for Cmax: read-out: Cmax; for Vd/F: read-out: Vdβ; for half-life: read-out: t1/2β; for Tmax: read-out: tmax (converted)
Procedure: as §1

[8] = intravenous route, prior knowledge; cited from earlier work
[9] = General tolerability by route of administration; assay type: in vivo; conditions: intravenous or intramuscular; listed as Mono-ethanolamine solution
[10] = 100 mg/ml (as acid), 0.5 ml injected
[11] = 131 mg/ml (as acid), 0.25 ml injected
[12] = 100 mg/ml (as acid), 0.25 ml injected
[13] = listed as Mono-ethanolamine solution

With `C=CCOc1ccc(CC(=O)O)cc1Cl` [Alclofenac-Arginine] as the molecule, how does the Solubility ([1]; listed as Arginine salt) read?
Its Solubility is “scarcely water soluble”.

What about the pH of solution ([2]; listed as Arginine salt) of the same molecule?
Its pH of solution is 7.7.

And the “SCORES at 24 hours, Average” value [3, 10]?
The value was 3.9.

What about the “SCORES at 24 hours, Average” value [3, 11] of the same molecule?
The value was 1.6.

And the “SCORES at 24 hours, individual” value [3, 10]?
The value was 6.5 and 2.5 and 3 and 3.5.

What about the “SCORES at 24 hours, individual” value [3, 11] of the same molecule?
The value was 1.5 and 3.5 and 3 and 0.

And the Hygroscopicity ([4]; listed as Arginine salt)?
The Hygroscopicity was “non-hygroscopic”.

For `C=CCOc1ccc(CC(=O)O)cc1Cl` [Alclofenac, 4-allyloxy-3-chlorophenylacetic acid, reference compound], which “% Availability (AUC o → 4h)” value ([5]; P.O. 90 mg/kg, 0-4 h, 90 mg/kg, 240 min) is on record?
The value was 42.4%.

And the “% Availability (practical AUC)” value ([5]; P.O. 90 mg/kg, 90 mg/kg)?
Its value is 84.0%.

And the “% Availability (theoretical AUC)” value ([5]; P.O. 90 mg/kg, 90 mg/kg)?
Its value is 89.2%.

And the “% Availability (AUC o → 2h)” value ([5]; Rectal 100 mg/kg, 0-2 h, 100 mg/kg, 120 min)?
Its value is 83.24%.

What about the “% Availability (practical AUC)” value ([5]; Rectal 100 mg/kg, 100 mg/kg) of the same molecule?
Its value is 105.7%.

And the “% Availability (theoretical AUC)” value ([5]; Rectal 100 mg/kg, 100 mg/kg)?
The value was 87.2%.

What about the Solubility [1] of the same molecule?
Its Solubility is “insoluble in the physiological fluids; also recorded: insolubility”.

And the antiinflammatory properties ([6]; in vivo)?
Its antiinflammatory properties is “antiinflammatory properties”.

What about the analgesic activity ([6]; versus acetylsalicylic acid) of the same molecule?
The analgesic activity was “marked analgesic activity, higher than acetylsalicylic acid”.

And the Ka ([7]; P.OS 90 mg/kg)?
Its Ka is 0.0146 ± 0.0018 min⁻¹.

What about the t1/2α ([7]; P.OS 90 mg/kg) of the same molecule?
Its t1/2α is 51.0000 ± 5.0000 min.

What about the Ka ([7]; RECTAL 100 mg/kg) of the same molecule?
Its Ka is 0.053 ± 0.10 min⁻¹.

And the t1/2α ([7]; RECTAL 100 mg/kg)?
The t1/2α was 14 ± 3 min.

What about the “absorption, in words” value ([7]; oral and rectal route, rabbits) of the same molecule?
Its value is “well absorbed through the oral and rectal route”.

What about the CL/F ([7]; 100 mg/kg, RECTAL 100 mg/kg) of the same molecule?
Its CL/F is 0.54 ± 0.04 mL/min/kg.

What about the k el ([7]; 100 mg/kg, RECTAL 100 mg/kg) of the same molecule?
The k el was 3.83e-05 s⁻¹.

And the Cmax ([7]; 100 mg/kg, RECTAL 100 mg/kg)?
Its Cmax is 425 ± 11.9 µg/mL.

What about the Vd/F ([7]; 100 mg/kg, RECTAL 100 mg/kg) of the same molecule?
Its Vd/F is 0.274 ± 0.06 L/kg.

What about the half-life ([7]; 100 mg/kg, RECTAL 100 mg/kg) of the same molecule?
Its half-life is 307 ± 35 min.

What about the Tmax ([7]; 100 mg/kg, RECTAL 100 mg/kg) of the same molecule?
Its Tmax is 1.1 h.

And the CL/F ([7]; po, 90 mg/kg, P.OS 90 mg/kg)?
Its CL/F is 0.64 ± 0.06 mL/min/kg.

And the k el ([7]; po, 90 mg/kg, P.OS 90 mg/kg)?
The k el was 3e-05 s⁻¹.

What about the Cmax ([7]; po, 90 mg/kg, P.OS 90 mg/kg) of the same molecule?
Its Cmax is 358 ± 47.8 µg/mL.

What about the Vd/F ([7]; po, 90 mg/kg, P.OS 90 mg/kg) of the same molecule?
The Vd/F was 0.326 ± 0.045 L/kg.

And the half-life ([7]; po, 90 mg/kg, P.OS 90 mg/kg)?
Its half-life is 414 ± 40 min.

And the Tmax ([7]; po, 90 mg/kg, P.OS 90 mg/kg)?
Its Tmax is 2.88 h.

For `C=CCOc1ccc(CC(=O)O)cc1Cl` [sodic salt of the acid], which tolerability of injection [8] is on record?
Its tolerability of injection is “scarcely tolerated”.

With `C=CCOc1ccc(CC(=O)O)cc1Cl` [Alclofenac-Methylglucose] as the molecule, how does the “SCORES at 24 hours, Average” value [3, 12] read?
Its value is 2.

And the “SCORES at 24 hours, Average” value [3, 10]?
Its value is 5.4.

And the “SCORES at 24 hours, individual” value [3, 12]?
The value was 0 and 3 (2×).

What about the “SCORES at 24 hours, individual” value [3, 10] of the same molecule?
Its value is 2 and 5 and 10 and 4.5.

And the “Stability of the solution” value ([4]; listed as Methylglucamine salt)?
The value was “not very stable”.

What about the Hygroscopicity ([4]; listed as Methylglucamine salt) of the same molecule?
Its Hygroscopicity is “very hygroscopic”.

Which results are given for `C=CCOc1ccc(CC(=O)O)cc1Cl` [Alclofenac-Ethanolamine]?
pH of solution [2, 13]: 7.5; SCORES at 24 hours, Average [3, 12]: 3; SCORES at 24 hours, individual [3, 12]: 3 and 3.5 and 2.5; tolerability on injection [9]: poor tolerability; Stability of the solution [4, 13]: stable
